The structures appear in SMILES notation.

The target in the first assay is T1, human PARS enzyme (Homo sapiens, UniProt P09874).
T1 construct: made in house; host or cells: baculovirus expression system (Bac-To-Bac, Life Technologies)
T1 sequence (P09874 whole entry): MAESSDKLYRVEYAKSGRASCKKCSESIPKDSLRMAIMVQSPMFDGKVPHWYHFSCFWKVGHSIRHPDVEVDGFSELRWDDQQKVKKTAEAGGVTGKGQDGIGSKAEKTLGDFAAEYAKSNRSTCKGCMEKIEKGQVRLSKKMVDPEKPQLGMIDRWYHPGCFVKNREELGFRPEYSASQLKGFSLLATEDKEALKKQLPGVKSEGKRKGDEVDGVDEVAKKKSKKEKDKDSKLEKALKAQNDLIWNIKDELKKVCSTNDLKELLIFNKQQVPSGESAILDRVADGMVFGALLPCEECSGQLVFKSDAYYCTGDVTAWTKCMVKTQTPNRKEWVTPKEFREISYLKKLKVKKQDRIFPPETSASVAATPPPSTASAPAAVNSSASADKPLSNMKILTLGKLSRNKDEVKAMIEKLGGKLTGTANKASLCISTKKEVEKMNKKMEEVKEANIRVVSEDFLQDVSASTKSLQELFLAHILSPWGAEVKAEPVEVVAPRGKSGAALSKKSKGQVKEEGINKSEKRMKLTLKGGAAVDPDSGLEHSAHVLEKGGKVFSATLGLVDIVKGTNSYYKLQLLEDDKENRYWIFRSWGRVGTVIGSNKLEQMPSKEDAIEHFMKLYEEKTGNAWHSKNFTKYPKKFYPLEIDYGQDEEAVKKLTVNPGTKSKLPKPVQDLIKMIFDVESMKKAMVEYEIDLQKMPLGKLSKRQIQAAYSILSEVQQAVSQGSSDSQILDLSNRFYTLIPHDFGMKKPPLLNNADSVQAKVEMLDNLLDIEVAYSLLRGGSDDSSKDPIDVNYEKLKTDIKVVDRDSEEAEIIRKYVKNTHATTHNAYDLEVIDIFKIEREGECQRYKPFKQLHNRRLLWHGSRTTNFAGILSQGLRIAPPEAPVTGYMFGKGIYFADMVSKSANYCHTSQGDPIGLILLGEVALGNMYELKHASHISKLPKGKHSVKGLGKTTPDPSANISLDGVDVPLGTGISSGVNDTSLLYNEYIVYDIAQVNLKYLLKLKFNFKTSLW
The assay can be described thus: PARS inhibition test (in vitro). The note with it: recombinant human PARS, [14C]-NAD+, 10 min room temperature. The format is biochemical. As to the method:
The activity of substances as PARS inhibitors is tested in accordance with the method of Ushiro [Ushiro et al., J. Biol. Chem., 262, 2352-2357 (1987)]. To this end, recombinantly expressed (Bac-To-Bac, Baculo virus expression system; Instruction Manual; Life Technologies) human PARS enzyme is activated in a buffer which contains radioactively labeled [^14C]-NAD^+. The poly(ADP-ribose) units that are synthesized are precipitated using trichloroacetic acid, and the proportion of labeled protein is determined by scintillation measurements. Incubation of PARS with inhibitors leads to a decrease in the proportion of labeled protein and thus to a reduced radioactivity.
Inhibition of the PARS activity can be represented as a percentage of PARS inhibition in incubation with different substances or as the concentration at which 50% of the enzyme is inhibited, i.e. as IC50 value.
The compounds to be tested are dissolved in DMSO (dimethyl sulfoxide) at a concentration of 10 mM. The assay is carried out in deep 96-well plates. Per well, 70 μl of buffer, 10 μl of DNA, 10 μl of histones, 10 μl of NAD^+/[^14C]-NAD^+ mix and 0.5-5 μl of PARS (about 10,000 cpm/test) are combined with 1 μl of the compounds (final concentration 0.001-10 μM), to give a total volume of about 110 μl. The mixture is incubated at room temperature for 10 min, and 1 ml of ice-cold TCA solution is then added, and the precipitated labeled proteins are sucked onto a filter paper (printed filter mat A; from Wallac) using a harvester (from Scatron). The filter is dried, sealed together with a scintillation sheet (Multilex A; from Wallac) and measured in a p counter for 1 min per well.
In addition to the substances described in this application, the known PARS inhibitor 1,5-dihydroxyisoquinoline (DHCH) is tested as reference substance. The results of the test are stated as IC50 values for the inhibition of PARS.
In the case of `Oc1cccc2c(O)nccc12` [DHCH, 1,5-dihydroxyisoquinoline, reference compound], the half-maximal inhibitory concentration (IC50) (usually the point on the concentration scale where inhibition reaches its midpoint) is 300 nM. Turning to `O=c1[nH]c(=O)n(CCc2ccc(Br)cc2)c2c1CSCC2` [Example 1, 1-[2-(4-Bromophenyl)ethyl]-1,5,7,8-tetrahydro-2H-thiopyrano[4,3-d]pyrimidine-2,4(3H)-dione], the IC50 is 60 nM. The same measure, in the same setting: the figure for `O=c1[nH]c(=O)n(CCc2ccc(CNCCO)cc2)c2c1CSCC2` [Example 6, 1-[2-(4-{[(2-Hydroxyethyl)amino]methyl}phenyl)ethyl]-1,5,7,8-tetrahydro-2H-thiopyrano-[4,3-d]pyrimidine-2,4(3H)-dione] is 50 nM. Same read-out and setting: the figure for `Cc1cn(CCCn2c3c(c(=O)[nH]c2=O)CSCC3)cn1` [Example 8, 1-[3-(4-Methyl-1H-imidazol-1-yl)propyl]-1,5,7,8-tetrahydro-2H-thiopyrano[4,3-d]pyrimidine-2,4(3H)-dione] is 85 nM. Turning to `O=c1[nH]c(=O)n(CCc2ccc([N+](=O)[O-])cc2)c2c1CSCC2` [Example 40], the IC50 was 20 nM. Still for that read-out and setting: the figure for `Cc1[nH]ncc1CCCn1c2c(c(=O)[nH]c1=O)CSCC2` [Example 53] is 80 nM.

With `O=c1[nH]c(=O)n(Cc2cccnc2)c2c1CSCC2` [Example 56], the IC50 was 75 nM. Still for that read-out and setting: under `CC(C)N1CCN(C(=O)c2ccc(CCn3c4c(c(=O)[nH]c3=O)CSCC4)cc2)CC1` [Example 62] stands 800 nM.

The next assay has as its system MHEC5-T cells. The assay can be described thus: Cell protection assay (in vitro), H2O2-induced cell death. The format is cell-based. To be noted: MHEC5-T endothelial cells, 3 mM H2O2, 5 hours, Alamar blue; 10 μM DHCH defined as 100% protection; read-out: Cell protection (in vitro) EC50. How it is done: In accordance with a method described by Bowes [Bowes et al., Br. J. Pharmacol., 124, 1760-1766 (1998)], the ability of PARS inhibitors to protect cells against cell death induced by incubation with H2O2 is examined in a cell protection assay. Incubation of endothelial cells with H2O2 results in the generation of DNA strand breaks which in turn activate PARS, resulting in a drastic energy decrease in the cells and in cell death. Living cells are quantified by a fluorimetric redox indicator (Alamar blue), which is converted in the electron transport system of the mitochondria.
Specifically, 7500 MHEC5-T cells/well (DSM ACC 336; German collection of microorganisms and cell cultures) are sown in 4 replications on a 96-well plate. After 24 hours, the cells are incubated with 3 mM aqueous H2O2 solution and differing concentrations of the substances in the presence of 6% by volume of Alamar blue solution in the medium at 37° C. for 5 hours. The reference substance used is 10 μM 1,5-dihydroxyisoquinoline (DHCH) solution. After the incubation, the fluorescence is measured at an excitation wavelength of 530-560 nm and an emission wavelength of 590 nm. The percentage for the cell protection is calculated as the difference between the living cells treated only with H2O2 and the cells treated with H2O2 and PARS inhibitors. The internal standard used is 10 μM DHCH, which is defined as 100% protection. The results obtained for the other substances are compared to this value.
The EC50 values indicate the concentration at which 50% of maximum cell protection is reached, maximum protection by 10 μM DHCH being defined as 100%. DHCH has an EC50 value of 2 μM.
(Resazurin is reduced to fluorescent resorufin, in cell work by metabolically active cells.)
`O=Cc1ccc(CCn2c3c(c(=O)[nH]c2=O)CSCC3)cc1` [Example 5]: the EC50 (in general, the midpoint of the concentration-response curve) was 150 nM. `O=c1[nH]c(=O)n(CCc2ccc(CN3CCCCC3)cc2)c2c1CSCC2` [Example 61]: the EC50 came to 100 nM. Still for that read-out and setting: the figure for `O=c1[nH]c(=O)n(CCCn2cnc([N+](=O)[O-])c2)c2c1CSCC2` [Example 65] is 90 nM; for `O=c1[nH]c(=O)n(CCc2cccnc2)c2c1CSCC2` [Example 66] it is 650 nM; for `O=c1[nH]c(=O)n(CCCn2ccnc2)c2c1CSCC2` [Example 76] it is 500 nM.

Still in this assay, the particulars now being: MHEC5-T endothelial cells, 3 mM H2O2; maximum protection by 10 μM DHCH defined as 100%; read-out: EC50 value cell protection.
For `Oc1cccc2c(O)nccc12` [DHCH, 1,5-dihydroxyisoquinoline, reference compound], the EC50 was 2000 nM.
